Results reported in patent publication US20020005386A1, “Water based oil dispersant” (Polychemical Corporation, priority 1999, published 2002).

Experiments:
Mysidopsis bahia = experiment: Dispersant toxicity testing, 48 hour LC50; details: in vivo
Description: Dispersant toxicity testing was performed by Coastal Bioanalysts.
This toxicity data was obtained using the concentrated product.

[1] = Surfactant screening test, visual emulsification of Prudhoe Bay Crude in river (sea) water; details: 1st set: pure surfactant, 10 ml added to 100 microliter PBC in 120 ml water; shaken 50 times, stand 10 min
Description: 120 ml of the river (sea) water is taken in a 130 ml bottle. Add 100 micro liter(μl) of Prudhoe Bay Crude to the bottle. Add […] of the pure test surfactant. The ratio of the surfactant to oil is 1:10, as per the spec. (the only difference is instead of 100 μl of the 1:10 mixture, the volume added was 110 μl) the mix was shaken vigorously 50 times and allowed to stand 10 min. to evaluate the effectiveness of the system and compare it to COREXIT 9500 at the same ratio.
The first set was with pure surfactants, the 2nd set was with two surfactants combination with 10 μl, in a 1:3 ratio and the 3rd was with a 3 or more surfactants system with 1:3 ratio but 10 μl, 20 μl, or 30 μl addition. The results are tabulated below:
10 μl added unless otherwise stated.
A combination of the above selected surfactants was conceived and formulations with the following variations were evaluated: […]

| Compound | LC50 of the Control Toxicant, M. bahia (Mysidopsis bahia) | APPEARANCE STABILITY OF EMULSION [1] |
| --- | --- | --- |
| CCCCCCCCCCCCOS(=O)(=O)[O-].[Na+] [Dss] | The Control Toxicant (Dss): M. bahia 9.82 ppm |  |
| CCCCCCCC/C=C\CCCCCCCC(=O)OCC(O)CO (centres unmarked) [GMO, Glyceryl mono oleate] |  | Not good |
